# Test results as given in the RepoRT retention time repository.
# Test: Waters SunFire C18, 150 × 2.1 mm, 3.5 µm, 25 °C, 0.25 mL/min, estimated dead time 1.3 min; A: water + 0.1% formic acid; B: methanol; gradient (min/%B) 0/5 30/100
# Conditions: stereoisomer not certain
row,SMILES,LC retention time
1,c1ccc2c(c1)NC13CCC4(CCCN5CCC21C54)CC3 (centres undefined),19.5 min
2,C=Cc1cncc2c(=O)n3c(cc12)-c1[nH]c2ccccc2c1CC3,18.3 min
3,CC=C1CN(C)CC2(C(=O)OC)Cc3c([nH]c4ccccc34)C(=O)CC12 (centres undefined),14.3 min
4,CC=C1CN2C3CC1C(CO)(C(=O)OC)C2Cc1c3[nH]c2ccccc12 (centres undefined),12.9 min
5,CC=C1C[N+]2(C)CCc3c([nH]c4ccccc34)C2CC1Cc1nccc2c1[nH]c1ccccc12 (centres undefined),15.5 min
6,CC=C1C[n+]2ccc3c([nH]c4ccccc43)c2CC1C1=CN2c3ccccc3C34CCN5CC(=CC)C(CC53)C(C1O)C24 (centres undefined),15.2 min
7,CC=C1CN2C3CC1C(C(=O)OC)C2Cc1c3[nH]c2ccccc12 (centres undefined),16.2 min
8,CN1CCC23C(=O)CC4C(=CCOC5CC(=O)N(c6ccccc62)C3C54)C1 (centres undefined),13.6 min
9,CCC1CN2CCC3(C(=O)Nc4ccccc43)C2CC1C(=COC)C(=O)OC (centres undefined),16.4 min
10,CC=C1CN2C3CC45c6ccccc6N(C)C4C2CC1C3C5OC(=O)c1cc(OC)c(OC)c(OC)c1 (centres undefined),22.6 min
11,OC1OCC=C2CN3CCC45c6ccccc6NC4C1C2CC35 (centres undefined),9.62 min
12,CC=C1C[N+]2(C)C3CC1C(C(=O)[O-])C2Cc1c3[nH]c2ccccc12 (centres undefined),15.6 min
13,COc1ccc2c(c1)N1C(=O)CC3OCC=C4CN5CCC26C5CC4C3C16 (centres undefined),16.8 min
14,CCC1CN(C)CC2(C(=O)OC)Cc3c([nH]c4ccccc34)C(=O)CC12 (centres undefined),15 min
15,CC=C1CN2C3CC45c6ccccc6NC4(O3)C2CC1C5(COC(C)=O)C(=O)OC (centres undefined),17.3 min
16,CCC1=CN2CCC3=c4ccccc4=NC3=C2C=C1,14.4 min
17,CC=C1CN2CCC34c5ccccc5N5C(C(=O)OC)C1CC2C53OC(=O)c1c4ccc(O)c1O (centres undefined),19.6 min
18,COC(=O)C1(COC(=O)C=Cc2ccccc2)C2CC(N(C)CC23OC3C)C23Nc4ccccc4C21CC(=O)O3 (centres undefined),29.9 min
19,CC=C1CN2C3CC1C(CO)(C(=O)OC)C2Cc1c3n(C)c2ccccc12 (centres undefined),14.2 min
20,CCC1CC2CC3c4[nH]c5cc(OC)ccc5c4CCN(C2)C13 (centres undefined),18.6 min
21,CCC1CN(C)C2Cc3c([nH]c4ccccc34)C(c3c(OC)ccc4c5c([nH]c34)C3([C-]=[O+]OC)CC4CC(CC)C3N(CC5)C4O)CC1C2C(=O)OC (centres undefined),15.1 min
22,CC=C1CN2C(C3C(=O)N4c5ccccc5C56CCN7CC8=CCOC3C(C8CC75)C46)CC34c5ccccc5N5C(=O)CC=C(C1CC23)C54 (centres undefined),15.6 min
23,COC(=O)C1=COC(C)C2CN3CCC4(C(=O)Nc5cc(OC)c(OC)cc54)C3CC12 (centres undefined),15.8 min

row,SMILES,LC retention time
1,C=CC1CN2CCc3c([nH]c4ccccc34)C2CC1C(=COC)C(=O)OC (centres undefined),16.7 min
2,CC=C1CN(C)C2Cc3c([nH]c4ccccc34)C(c3cc4[nH]c5c(c4cc3OC)CCN3CC4CC(CC)C3C5(C(=O)OC)C4)CC1C2C(=O)OC (centres undefined),17.5 min
3,CCC1CN2CCC34c5ccccc5NC3C(CO)C1CC24 (centres undefined),10.4 min
4,O=c1c2cncc3c2c(c2n1CCc1c-2[nH]c2ccccc12)C=C3,22.1 min
5,CC=C1CN2CCC34C(=C(C(=O)OC)C1CC23)Nc1ccccc14 (centres undefined),11.1 min
6,CC=C1CN2CCC34c5ccccc5N5C(=O)C(C6CC78c9ccccc9N9C(=O)C=CC(C%10CC7N6CC%10=CC)C98)=CC(C1CC23)C54 (centres undefined),15.3 min
7,CCC1C2CCN3CCC4(C(=C2C(=O)OC)Nc2ccccc24)C13 (centres undefined),13.7 min
8,C=CC1C(OC2OC(CO)C(O)C(O)C2O)OC2OC3CNC4CC1C2(C(=O)OC)C41Nc2ccccc2C31 (centres undefined),10.3 min
9,CCC1=CC2CN3CCc4c([nH]c5ccccc45)C(C(=O)OC)(C2)C13 (centres undefined),16.1 min
10,CCC12C=CCN3CCC4(C(=C(C(=O)OC)C1)Nc1ccccc14)C32 (centres undefined),18.2 min
11,O=C1CC2OCC=C3CN4CCC56c7ccccc7N1C5C2C3CC46O (centres undefined),13.3 min
12,COC(=O)N1c2ccccc2C23CCN4C(=O)C=CC45CCC12C(C5)C(=O)O3 (centres undefined),24.1 min
13,CCC1CN2CCC34C5=C(CC6(CC7CC(CC)N8CCC9(C6=Nc6ccccc69)C78)CN5c5ccccc53)C1CC24 (centres undefined),16.3 min
14,C=CC12C=CCN3CCC4(c5ccccc5NC(=O)C4C1)C32 (centres undefined),11.7 min
15,C=CC12CN(C)C3C4COC(CC41)C1(C(=O)Nc4ccccc41)C32 (centres undefined),9.75 min
16,CC=C1C[N+]2(C)CCC34c5ccccc5NC32C(O)CC1C4(CO)C(=O)OC (centres undefined),13.4 min
17,CCC1CC2CC3c4[nH]c5ccccc5c4CCN(C2)C13 (centres undefined),15.3 min
18,Cc1[nH]ccc2c(C)c3nc4ccccc4c3cc12,21.5 min
19,COc1ccc2[nH]c3c(c2c1)CCN1CC2CC3C1C(C(C)O)C2 (centres undefined),14.9 min
20,CC=C1CN(C)CCC23C(=O)CC1C1COC(O)C(=O)N(c4ccccc42)C13 (centres undefined),12.1 min
21,CC=C1CN2C(C3=CC4C5CC6N(CCC67c6ccccc6N(C3=O)C47)CC5=CCO)CC34c5ccccc5N5C(=O)CC=C(C1CC23)C54 (centres undefined),15.3 min
22,C=CC1CN2CCC1CC2c1[nH]c2ccccc2c1CCO (centres undefined),16.7 min

# Next, values leading:
row,LC retention time,SMILES
1,15.3 min,CC=C1C2CC[N+]3([O-])CCC4(C(=C2C(=O)OC)Nc2ccccc24)C13 (centres undefined)
2,18 min,COC(=O)C1CC23CCCN4CCC5(c6cc(Cc7ccc8c(c7)C79CCN%10CCCC%11(CCC7(N8)C(C(=O)O)C%11)C%109)ccc6N(C)C15CC2)C43 (centres undefined)
3,15.3 min,CC=C1CN(C)C2Cc3c([nH]c4ccccc34)C(=O)CC1C2C(=O)OC (centres undefined)
4,25.8 min,CCC12CC34CC(C(=O)OC)=C5Nc6ccccc6C56CCN3C1C1CC3(CC)C5OC5CN5CCC7(c8ccccc8N(C64)C17O2)C53 (centres undefined)
5,26.9 min,COC(=O)C1CC23CCCN4CCC5(c6ccccc6N(C(=O)OC)C15CC2)C43 (centres undefined)
6,14.2 min,C=CC(CO)C1CC[N+]2(C)CCc3c([nH]c4ccccc34)C2C1 (centres undefined)
7,14.4 min,CCC1CN2CCc3c([nH]c4ccccc34)C2CC1CC=O (centres undefined)
8,13.8 min,CC=C1CN2CCC34C(=O)c5cc6c(cc5OC35C2CC1C(C(=O)OC)N5c1ccccc14)NC12CCC3(CC)CCC[N+]1(CCC62O)C3 (centres undefined)
9,18.3 min,CC=C1CN2CCc3c([nH]c4ccccc34)C2CC1C(C=O)C(=O)OC (centres undefined)
10,18.6 min,CCC1(O)CC2CN(CCc3c([nH]c4ccccc34)C(C(=O)OC)(c3cc4c(cc3OC)N(C)C3C(O)(C(=O)OC)C(OC(C)=O)C5(CC)C=CCN6CCC43C65)C2)C1 (centres undefined)
11,13.6 min,C=CC1CN2CCc3c([nH]c4ccc(O)cc34)C2CC1CC1c2[nH]c3ccccc3c2CCN1C (centres undefined)
12,13.3 min,C=CC1CN2CCc3c([nH]c4cc(O)ccc34)C2CC1CC1c2[nH]c3ccccc3c2CCN1C (centres undefined)
13,25.1 min,COC(=O)C1CC23C=CC(=O)N2CCC2(C(=O)OC)c4ccccc4N(C(=O)OC)C12CC3 (centres undefined)
14,14.3 min,CC=C1CN(C)CC2Cc3c([nH]c4ccccc34)C(=O)CC12 (centres undefined)
15,20 min,CCC12CCCN3CCc4c(n(c5ccccc45)C(O)(C(=O)OC)C1)C32 (centres undefined)
16,18.7 min,CCC12CCCN3CCc4c(n(c5ccccc45)C(c4ccc5c(c4)C46CCN7CCCC8(CCC4(C(C(=O)OC)C8)N5C)C76)C1)C32 (centres undefined)
17,11.7 min,CC=C1CN2CCc3c([nH]c4ccc(O)cc34)C2CC1CCO (centres undefined)
18,13 min,CCC12C=CCN3CCc4c(n(c5ccccc45)C(O)(C(=O)OC)C1)C32 (centres undefined)
19,10.1 min,O=C1CC(O)C2C3CC4N(CCC45c4ccccc4N1C25)CC3=CCO (centres undefined)
20,12.6 min,CC=C1CN(C)C2Cc3c([nH]c4ccccc34)C(c3ccc4c(CCN)c[nH]c4c3)CC1C2C(=O)OC (centres undefined)

row,LC retention time,SMILES
1,14.1 min,COC(=O)C1C(O)CCC2CN3CCc4c([nH]c5cc(OC)ccc45)C3CC21 (centres undefined)
2,14.5 min,CCC1CN2CCc3c([nH]c4ccccc34)C2CC1Cc1nccc2c1[nH]c1ccccc12 (centres undefined)
3,13.7 min,C=CC1CN2CCC1CC2C(O)c1ccnc2ccc(OC)cc12 (centres undefined)
4,21.9 min,COC(=O)C1C2CC3c4[nH]c5cc(OC)ccc5c4CCN3CC2CC(OC(=O)c2cc(OC)c(OC)c(OC)c2)C1OC (centres undefined)
5,16.5 min,CC=C1CN2CCC3(O)c4ccccc4N4C=C(C(=O)OC)C1CC2C43O (centres undefined)
6,14.2 min,C=C1C2CC(=O)c3[nH]c4ccccc4c3C1N(C)CC2=CC (centres undefined)
7,19.5 min,COC(=O)C1CC23CCCN4CCC5(c6cc(Cc7ccc8c(c7)C79CCN%10CCCC%11(CCC7(C(C(=O)OC)C%11)N8C)C%109)ccc6N(C)C15CC2)C43 (centres undefined)
8,14.7 min,CCC1CN2CCc3c([nH]c4ccccc34)C2CC1CC1c2[nH]c3ccccc3c2CCN1C (centres undefined)
9,17.2 min,COC(=O)C1CC23CCCN4CCC5(c6ccccc6N(C)C15CC2)C43 (centres undefined)
10,17 min,COC(=O)C1=COC(C)C2CN3CCc4c([nH]c5cc(OC)c(OC)cc45)C3CC12 (centres undefined)
11,13.2 min,COC(=O)C1=COC(C)C2Cn3ccc4c5ccccc5nc-4c3CC12 (centres undefined)
12,14.8 min,CCC1(O)CC23CC4N(CCC45C(=C2C(=O)OC)Nc2ccccc25)C13 (centres undefined)
13,15 min,CC=C1CN2CCC34CN5c6c(cccc6C36C2CC1C(C(=O)OC)N6c1ccccc14)C12CCN3CCCC4(CCC51C4C)C32 (centres undefined)
14,15.3 min,CC=C1CN(C)C2Cc3c([nH]c4ccccc34)C(c3ccc4c5c([nH]c4c3)C3CC4CC(CC)C3N(CC5)C4)CC1C2C(=O)OC (centres undefined)
15,13.5 min,COC(=O)C1CC23C=CCN4CCC5(c6ccccc6NC15C2C)C43 (centres undefined)
16,16.3 min,CCC1CN(C)C2Cc3c([nH]c4ccccc34)C(O)(c3cc4c5c([nH]c4cc3OC)C3(C(=O)OC)CC4CC(CC)C3N(CC5)C4)CC1C2C(=O)OC (centres undefined)
17,16.1 min,COC(=O)C1C2CC3c4[nH]c5cc(OC)ccc5c4CCN3CC2CC(O)C1OC (centres undefined)
18,16.6 min,CC=C1CN2CCc3c([nH]c4ccccc34)C2CC1Cc1nccc2c1[nH]c1ccc(O)cc12 (centres undefined)
19,13.8 min,CC=C1CN2C3CC1C(C1OCC4C5CC6N(CCC67c6ccccc6N1C47)CC5CC)C2Cc1c3[nH]c2ccccc12 (centres undefined)
